Assay results: patent US20250312462A1, “PAK1 DEGRADERS AND METHODS OF USE THEREOF” (INSTITUTE FOR CANCER RESEARCH D/B/A THE RESEARCH INSTITUTE …, priority 2022, published 2025)

How the values were obtained:
Experiment in all cases: KINOMEscan
Details in all cases: read-out: Percent Control
[1] = molecular target: RSK4(Kin.Dom.2-C-terminal) (Homo sapiens, UniProt Q9UK32)
Method: (§1) The kinase engagement assay (KINOMEscan®) was performed by DiscoverX assessing binding abilities toward a set of kinases.

[2] = molecular target: GCN2(Kin.Dom.2, S808G) (Homo sapiens, UniProt Q9P2K8, S808G)
Method: as §1

[3] = molecular target: KIT(V559D, V654A) (Homo sapiens, UniProt P10721, V559D/V654A)
Method: as §1

[4] = molecular target: HIPK4 (Homo sapiens, UniProt Q8NE63)
Method: as §1

[5] = molecular target: MYO3A (Homo sapiens, UniProt Q8NEV4)
Method: as §1

[6] = molecular target: ACVRL1 (Homo sapiens, UniProt P37023)
Method: as §1

[7] = molecular target: FYN (Homo sapiens, UniProt P06241)
Method: as §1

[8] = molecular target: TRKA (Homo sapiens, UniProt P04629)
Method: as §1

[9] = molecular target: TYRO3 (Homo sapiens, UniProt Q06418)
Method: as §1

[10] = molecular target: BIKE (Homo sapiens, UniProt Q9NSY1)
Method: as §1

[11] = molecular target: WNK1 (Homo sapiens, UniProt Q9H4A3)
Method: as §1

[12] = molecular target: YES (Homo sapiens, UniProt P07947)
Sequence of YES (P07947 whole entry): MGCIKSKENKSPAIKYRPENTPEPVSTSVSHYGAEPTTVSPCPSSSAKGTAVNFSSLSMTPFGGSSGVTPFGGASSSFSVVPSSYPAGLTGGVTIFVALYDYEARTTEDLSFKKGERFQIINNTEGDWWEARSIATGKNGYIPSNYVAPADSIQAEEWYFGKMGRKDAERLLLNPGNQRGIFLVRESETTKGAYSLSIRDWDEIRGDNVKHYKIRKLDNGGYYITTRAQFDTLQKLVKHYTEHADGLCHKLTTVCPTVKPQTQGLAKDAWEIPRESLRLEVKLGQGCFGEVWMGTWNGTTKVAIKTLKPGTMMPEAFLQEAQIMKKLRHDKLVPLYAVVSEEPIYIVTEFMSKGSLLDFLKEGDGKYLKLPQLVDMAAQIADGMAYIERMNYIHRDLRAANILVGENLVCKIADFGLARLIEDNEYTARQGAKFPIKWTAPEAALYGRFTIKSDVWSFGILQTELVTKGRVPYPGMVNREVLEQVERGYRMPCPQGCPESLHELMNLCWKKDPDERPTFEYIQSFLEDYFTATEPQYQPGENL
Method: as §1

[13] = molecular target: NEK9 (Homo sapiens, UniProt Q8TD19)
Sequence of NEK9 (Q8TD19 whole entry): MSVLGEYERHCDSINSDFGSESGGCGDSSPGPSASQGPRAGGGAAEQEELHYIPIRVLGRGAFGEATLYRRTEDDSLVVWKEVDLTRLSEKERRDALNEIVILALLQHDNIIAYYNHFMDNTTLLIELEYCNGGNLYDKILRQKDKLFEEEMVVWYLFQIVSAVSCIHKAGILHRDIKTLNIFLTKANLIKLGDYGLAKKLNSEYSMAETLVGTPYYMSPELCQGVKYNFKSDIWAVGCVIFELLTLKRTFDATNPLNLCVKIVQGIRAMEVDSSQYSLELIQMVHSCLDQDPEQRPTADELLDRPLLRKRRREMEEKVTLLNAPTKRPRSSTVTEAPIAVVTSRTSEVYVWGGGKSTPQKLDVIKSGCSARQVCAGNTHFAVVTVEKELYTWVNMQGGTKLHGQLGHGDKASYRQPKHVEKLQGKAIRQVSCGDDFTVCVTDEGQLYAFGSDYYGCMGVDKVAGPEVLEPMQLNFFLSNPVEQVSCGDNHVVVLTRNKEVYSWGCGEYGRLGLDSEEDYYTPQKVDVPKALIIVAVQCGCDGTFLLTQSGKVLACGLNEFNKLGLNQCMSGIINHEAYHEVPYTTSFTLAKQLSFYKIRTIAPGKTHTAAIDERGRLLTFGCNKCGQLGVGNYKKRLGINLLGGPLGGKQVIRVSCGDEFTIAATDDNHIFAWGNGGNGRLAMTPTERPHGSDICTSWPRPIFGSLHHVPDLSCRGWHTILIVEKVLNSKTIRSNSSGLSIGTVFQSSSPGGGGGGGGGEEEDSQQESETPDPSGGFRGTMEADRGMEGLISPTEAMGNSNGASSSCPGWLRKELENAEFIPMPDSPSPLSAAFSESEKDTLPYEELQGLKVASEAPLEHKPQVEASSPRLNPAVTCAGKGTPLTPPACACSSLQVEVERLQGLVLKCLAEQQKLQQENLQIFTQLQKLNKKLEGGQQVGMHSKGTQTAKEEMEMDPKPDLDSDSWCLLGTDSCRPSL
Method: as §1

[14] = molecular target: ADCK3 (Homo sapiens, UniProt Q8NI60)
Sequence of ADCK3 (Q8NI60 163-647): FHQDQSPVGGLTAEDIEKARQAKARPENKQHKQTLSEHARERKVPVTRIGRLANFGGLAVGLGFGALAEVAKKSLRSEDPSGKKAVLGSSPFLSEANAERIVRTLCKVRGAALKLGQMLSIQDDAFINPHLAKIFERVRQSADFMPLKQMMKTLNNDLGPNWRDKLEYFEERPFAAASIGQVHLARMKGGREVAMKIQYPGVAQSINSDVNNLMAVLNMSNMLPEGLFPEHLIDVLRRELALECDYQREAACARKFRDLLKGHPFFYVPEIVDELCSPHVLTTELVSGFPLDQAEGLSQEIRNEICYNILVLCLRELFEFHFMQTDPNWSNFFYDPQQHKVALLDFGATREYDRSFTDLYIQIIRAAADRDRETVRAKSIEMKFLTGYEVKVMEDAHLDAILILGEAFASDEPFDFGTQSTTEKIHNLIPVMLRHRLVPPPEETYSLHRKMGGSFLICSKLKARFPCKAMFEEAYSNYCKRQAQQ
Method: as §1

[15] = molecular target: AKT1 (Homo sapiens, UniProt P31749)
Method: as §1

[16] = molecular target: ERK1 (Homo sapiens, UniProt P27361)
Sequence of ERK1 (P27361 whole entry): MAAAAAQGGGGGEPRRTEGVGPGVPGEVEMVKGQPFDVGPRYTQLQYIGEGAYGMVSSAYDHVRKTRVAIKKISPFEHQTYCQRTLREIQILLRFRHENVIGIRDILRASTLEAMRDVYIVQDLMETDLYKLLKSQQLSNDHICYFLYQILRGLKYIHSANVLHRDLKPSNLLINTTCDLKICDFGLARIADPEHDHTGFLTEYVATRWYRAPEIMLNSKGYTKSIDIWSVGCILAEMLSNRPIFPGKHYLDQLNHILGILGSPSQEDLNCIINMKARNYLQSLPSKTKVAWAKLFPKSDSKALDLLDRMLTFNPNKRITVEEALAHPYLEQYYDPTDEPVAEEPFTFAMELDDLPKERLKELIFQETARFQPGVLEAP
Method: as §1

[17] = molecular target: MLK1 (Homo sapiens, UniProt P80192)
Sequence of MLK1 (P80192 whole entry): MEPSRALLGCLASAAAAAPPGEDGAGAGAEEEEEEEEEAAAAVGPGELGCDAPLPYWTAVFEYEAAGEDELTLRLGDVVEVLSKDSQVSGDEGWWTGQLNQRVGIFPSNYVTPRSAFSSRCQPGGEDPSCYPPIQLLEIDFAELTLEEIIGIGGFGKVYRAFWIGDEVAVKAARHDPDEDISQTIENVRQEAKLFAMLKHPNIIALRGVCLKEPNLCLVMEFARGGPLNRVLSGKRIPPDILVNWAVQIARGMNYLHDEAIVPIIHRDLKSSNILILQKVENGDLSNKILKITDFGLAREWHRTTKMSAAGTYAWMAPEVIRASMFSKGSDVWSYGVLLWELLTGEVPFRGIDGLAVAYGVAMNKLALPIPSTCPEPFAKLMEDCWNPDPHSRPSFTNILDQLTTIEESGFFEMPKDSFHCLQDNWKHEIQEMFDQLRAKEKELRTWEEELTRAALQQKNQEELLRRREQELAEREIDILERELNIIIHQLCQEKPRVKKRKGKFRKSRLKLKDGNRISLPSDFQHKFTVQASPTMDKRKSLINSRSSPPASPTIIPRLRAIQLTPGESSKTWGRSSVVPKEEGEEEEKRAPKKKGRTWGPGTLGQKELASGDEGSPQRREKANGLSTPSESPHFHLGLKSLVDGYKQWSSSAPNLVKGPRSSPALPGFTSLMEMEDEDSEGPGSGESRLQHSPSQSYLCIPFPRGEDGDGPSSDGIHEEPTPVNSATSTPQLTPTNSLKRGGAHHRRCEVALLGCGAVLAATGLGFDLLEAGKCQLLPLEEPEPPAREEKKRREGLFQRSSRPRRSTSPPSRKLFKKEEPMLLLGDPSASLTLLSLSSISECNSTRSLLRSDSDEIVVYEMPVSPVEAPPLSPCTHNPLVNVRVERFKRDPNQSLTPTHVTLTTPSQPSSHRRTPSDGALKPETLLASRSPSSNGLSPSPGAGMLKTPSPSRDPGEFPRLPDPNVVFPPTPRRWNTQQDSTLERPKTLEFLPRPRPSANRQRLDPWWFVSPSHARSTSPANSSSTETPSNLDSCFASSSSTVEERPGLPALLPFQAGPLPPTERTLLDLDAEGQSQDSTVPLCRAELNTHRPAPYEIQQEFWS
Method: as §1

[18] = molecular target: YSK1 (Homo sapiens, UniProt O00506)
Method: as §1

[19] = molecular target: PLK4 (Homo sapiens, UniProt O00444)
Method: as §1

[20] = molecular target: DDR2 (Homo sapiens, UniProt Q16832)
Method: as §1

[21] = molecular target: EGFR(L858R, T790M) (Homo sapiens, UniProt P00533, L858R/T790M)
Method: as §1

[22] = molecular target: FLT4 (Homo sapiens, UniProt P35916)
Method: as §1

[23] = molecular target: MYO3B (Homo sapiens, UniProt Q8WXR4)
Method: as §1

[24] = molecular target: EPHB3 (Homo sapiens, UniProt P54753)
Method: as §1

[25] = molecular target: GRK1 (Homo sapiens, UniProt Q15835)
Sequence of GRK1 (Q15835 whole entry): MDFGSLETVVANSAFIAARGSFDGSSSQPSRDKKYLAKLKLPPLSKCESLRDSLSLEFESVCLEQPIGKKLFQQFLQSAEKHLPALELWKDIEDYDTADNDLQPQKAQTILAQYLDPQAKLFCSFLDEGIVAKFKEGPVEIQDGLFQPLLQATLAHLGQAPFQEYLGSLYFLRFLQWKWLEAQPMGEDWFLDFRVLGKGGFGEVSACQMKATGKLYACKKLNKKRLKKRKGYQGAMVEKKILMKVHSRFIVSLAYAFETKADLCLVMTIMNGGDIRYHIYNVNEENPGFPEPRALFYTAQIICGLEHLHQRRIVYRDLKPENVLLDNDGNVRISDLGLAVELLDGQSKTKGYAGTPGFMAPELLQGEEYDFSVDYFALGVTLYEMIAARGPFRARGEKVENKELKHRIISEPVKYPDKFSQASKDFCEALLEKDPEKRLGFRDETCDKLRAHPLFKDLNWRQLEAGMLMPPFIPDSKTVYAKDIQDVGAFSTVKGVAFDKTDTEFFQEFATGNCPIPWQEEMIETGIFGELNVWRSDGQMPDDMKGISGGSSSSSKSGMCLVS
Method: as §1

[26] = molecular target: LKB1 (Homo sapiens, UniProt Q15831)
Method: as §1

[27] = molecular target: PIK3CA(E542K) (Homo sapiens, UniProt P42336, E542K)
Method: as §1

[28] = molecular target: SNARK (Homo sapiens, UniProt Q9H093)
Method: as §1

[29] = molecular target: ALK (Homo sapiens, UniProt Q9UM73)
Method: as §1

[30] = molecular target: CASK (Homo sapiens, UniProt O14936)
Method: as §1

[31] = molecular target: RIOK2 (Homo sapiens, UniProt Q9BVS4)
Method: as §1

[32] = molecular target: ABL1(M351T)-phosphorylated (Homo sapiens, UniProt P00519, M351T)
Method: as §1

[33] = molecular target: CDK7 (Homo sapiens, UniProt P50613)
Sequence of CDK7 (P50613 whole entry): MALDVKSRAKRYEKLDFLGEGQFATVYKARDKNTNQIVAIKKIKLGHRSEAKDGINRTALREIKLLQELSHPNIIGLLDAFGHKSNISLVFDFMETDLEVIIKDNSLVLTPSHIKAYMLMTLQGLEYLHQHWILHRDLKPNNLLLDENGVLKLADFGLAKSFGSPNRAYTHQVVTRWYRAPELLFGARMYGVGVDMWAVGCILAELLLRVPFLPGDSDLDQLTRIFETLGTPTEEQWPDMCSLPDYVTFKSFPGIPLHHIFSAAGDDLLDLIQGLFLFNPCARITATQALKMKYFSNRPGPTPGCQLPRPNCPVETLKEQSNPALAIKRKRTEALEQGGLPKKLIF
Method: as §1

[34] = molecular target: KIT-autoinhibited (Homo sapiens, UniProt P10721)
Method: as §1

[35] = molecular target: MAP3K3 (Homo sapiens, UniProt Q99759)
Method: as §1

[36] = molecular target: MAPKAPK5 (Homo sapiens, UniProt Q8IW41)
Method: as §1

[37] = molecular target: MYLK (Homo sapiens, UniProt Q15746)
Method: as §1

[38] = molecular target: PDGFRA (Homo sapiens, UniProt P16234)
Method: as §1

Sequence of GCN2(Kin.Dom.2, S808G) (Q9P2K8 590-1001 S808G limits assumed): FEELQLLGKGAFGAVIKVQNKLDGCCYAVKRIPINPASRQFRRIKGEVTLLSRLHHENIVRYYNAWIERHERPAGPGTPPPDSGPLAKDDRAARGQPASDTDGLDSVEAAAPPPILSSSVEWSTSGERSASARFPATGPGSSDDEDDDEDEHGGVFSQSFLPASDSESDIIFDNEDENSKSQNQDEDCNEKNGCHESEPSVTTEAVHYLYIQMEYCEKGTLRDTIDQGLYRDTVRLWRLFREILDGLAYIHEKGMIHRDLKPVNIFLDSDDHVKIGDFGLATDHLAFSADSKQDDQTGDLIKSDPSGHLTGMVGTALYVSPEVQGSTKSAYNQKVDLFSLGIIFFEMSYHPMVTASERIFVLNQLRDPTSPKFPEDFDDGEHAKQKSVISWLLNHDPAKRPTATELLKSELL

O=C1CCC(N2C(=O)c3cccc(NCCCCCCCCNC(=O)N4CC[C@H](NC5=Nc6cc(F)ccc6N(CC(F)F)c6ccc(Cl)cc65)C4)c3C2=O)C(=O)N1 (stereo partly drawn) [BJG-05-039, (3S)-3-((2-Chloro-5-(2,2-difluoroethyl)-8-fluoro-5H-dibenzo[b,e][1,4]diazepin-11-yl)amino)-N-(8-((2-(2,6-dioxopiperidin-3-yl)-1,3-dioxoisoindolin-4-yl)amino)octyl)pyrrolidine-1-carboxamide]
remaining binding at 10 µM [1]: 45%
remaining binding at 10 µM [2]: 56%
remaining binding at 10 µM [3]: 63%
remaining binding at 10 µM [4]: 67%
remaining binding at 10 µM [5]: 67%
remaining binding at 10 µM [6]: 71%
remaining binding at 10 µM [7]: 71%
remaining binding at 10 µM [8]: 72%
remaining binding at 10 µM [9]: 72%
remaining binding at 10 µM [10]: 74%
remaining binding at 10 µM [11]: 74%
remaining binding at 10 µM [12]: 79%
remaining binding at 10 µM [13]: 82%
remaining binding at 10 µM [14]: 83%
remaining binding at 10 µM [15]: 83%
remaining binding at 10 µM [16]: 83%
remaining binding at 10 µM [17]: 83%
remaining binding at 10 µM [18]: 83%
remaining binding at 10 µM [19]: 85%
remaining binding at 10 µM [20]: 86%
remaining binding at 10 µM [21]: 86%
remaining binding at 10 µM [22]: 86%
remaining binding at 10 µM [23]: 88%
remaining binding at 10 µM [24]: 89%
remaining binding at 10 µM [25]: 89%
remaining binding at 10 µM [26]: 89%
remaining binding at 10 µM [27]: 91%
remaining binding at 10 µM [28]: 96%
remaining binding at 10 µM [29]: 97%
remaining binding at 10 µM [30]: 99%
remaining binding at 10 µM [31]: 99%
remaining binding at 10 µM [32]: 100%
remaining binding at 10 µM [33]: 100%
remaining binding at 10 µM [34]: 100%
remaining binding at 10 µM [35]: 100%
remaining binding at 10 µM [36]: 100%
remaining binding at 10 µM [37]: 100%
remaining binding at 10 µM [38]: 100%
